Data taken from patent publication US20250034135A1, “ANTI-APOPTOTIC PROTEIN BCL-2 INHIBITOR, PHARMACEUTICAL COMPOSITION AND USES THEREOF” (HANGZHOU HEALZEN THERAPEUTICS CO., LTD., priority 2021, published 2025).

Target: BCL2 (Homo sapiens (Human), UniProt P10415)
Assay: Molecular level activity test of anti-apoptotic protein BCL2 (HTRF, binding to Bim peptide)
Settings: HTRF, binding of BCL2 to Bim peptide; read-out: BCL2 nM (inhibitory activity, IC50)
Description: The detection of the binding ability between anti-apoptotic protein BCL2 and pro-apoptotic protein Bim was performed using Homogeneous Time-Resolved Fluorescence technology. The reaction of this method occurred in a white shallow 384-well plate, with a total reaction volume of 10 μL. Specifically, it included 2 μL of the compound to be tested (2% DMSO), 4 μL His-tagged recombinant protein, and 4 μL Biotin-tagged BIM protein peptide. After 1 hour of reaction, 5 μL of each Anti-His and streptavidin-tagged XL665 antibody diluents diluted with a detection buffer were added. After incubating at room temperature for 4 hours, the values were read using the Envision multifunctional microplate reader to detect the effect of the compound to be tested on the binding ability of BCL2 to Bim protein peptides.

Sequence of BCL2 (P10415 whole entry): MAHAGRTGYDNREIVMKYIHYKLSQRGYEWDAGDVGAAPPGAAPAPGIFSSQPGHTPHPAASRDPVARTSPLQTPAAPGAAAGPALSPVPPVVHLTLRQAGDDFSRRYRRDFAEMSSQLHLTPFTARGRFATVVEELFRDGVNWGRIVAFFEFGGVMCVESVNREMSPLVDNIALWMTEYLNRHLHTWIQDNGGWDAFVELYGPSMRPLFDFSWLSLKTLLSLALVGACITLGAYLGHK

IC50 [nM] | Compound
< 10 | CC(C)c1ccccc1[C@@H]1CCCN1C1CC2(CCN(c3cc(Oc4cnc5[nH]ccc5c4)c(C(=O)NS(=O)(=O)c4cc([N+](=O)[O-])c(NC[C@H]5C[C@@](C)(O)C5)c5[nH]cnc45)cc3F)CC2)C1 [compound 018, 2-((1H-pyrrolo[2,3-b]pyrid-5-yl)oxy)-5-fluoro-N-((7-((((1S,3S)-3-hydroxy-3-methylcyclobutyl)methyl)amino)-6-nitro-1H-benzo[d]imidazol-4-yl)sulfonyl)-4-(2-((S)-2-(2-isopropylphenyl)pyrrolidin-1-yl)-7-azaspiro[3.5]non-7-yl)benzamide]
< 10 | CC(C)c1ccccc1[C@@H]1CN(Cc2ccc(F)cc2F)CCN1C1CC2(CCN(c3ccc(C(=O)NS(=O)(=O)c4cc([N+](=O)[O-])c(NCC5(F)CCOCC5)c5c4OCO5)c(Oc4cnc5[nH]ccc5c4)c3)CC2)C1 [compound 169, (R)-2-((1H-pyrrolo[2,3-b]pyrid-5-yl)oxy)-4-(2-(4-(2,4-difluorobenzyl)-2-(2-isopropylphenyl)piperazin-1-yl)-7-azaspiro[3.5]non-7-yl)-N-((7-(((4-fluorotetrahydro-2H-pyran-4-yl)methyl)amino)-6-nitrobenzo[d][1,3]dioxocyclopent-4-yl)sulfonyl)benzamide]
< 10 | COc1ccc(CN2CCN(C3CC4(CCN(c5ccc(C(=O)NS(=O)(=O)c6cc([N+](=O)[O-])c(NCC7(F)CCN(C(C)C)CC7)c7[nH]cnc67)c(Oc6cnc7[nH]ccc7c6)c5)CC4)C3)C(c3ccccc3C(C)C)C2)cc1 (stereo not shown) [compound 048, 2-((1H-pyrrolo[2,3-b]pyrid-5-yl)oxy)-N-((7-(((4-fluoro-1-isopropylpiperid-4-yl)methyl)amino)-6-nitro-1H-benzo[d]imidazol-4-yl)sulfonyl)-4-(2-(2-(2-isopropylphenyl)-4-(4-methoxybenzyl)piperazin-1-yl)-7-azaspiro[3.5]non-7-yl)benzamide]
< 10 | CC(C)c1ccccc1[C@@H]1CCCN1C1CC2(CCN(c3cc(Oc4cnc5[nH]ccc5c4)c(C(=O)NS(=O)(=O)c4cc([N+](=O)[O-])c(NCC5(F)CCN(CC(C)(C)C)CC5)c5[nH]cnc45)cc3F)CC2)C1 [compound 026]
< 10 | CC(C)c1ccccc1[C@@H]1CCCN1C1CC2(CCN(c3cc(Oc4cnc5[nH]ccc5c4)c(C(=O)NS(=O)(=O)c4cc([N+](=O)[O-])c(NCC5(F)CCOCC5)c5c4CCO5)cc3F)CC2)C1 [compound 105, (S)-2-((1H-pyrrolo[2,3-b]pyrid-5-yl)oxy)-5-fluoro-N-((7-(((4-fluorotetrahydro-2H-pyran-4-yl)methyl)amino)-6-nitro-2,3-dihydrobenzofuran-4-yl)sulfonyl)-4-(2-(2-(2-isopropylphenyl)pyrrolidin-1-yl)-7-azaspiro[3.5]non-7-yl)benzamide]
< 10 | COc1ccc(CN2CCN(C3CC4(CCN(c5ccc(C(=O)NS(=O)(=O)c6cc([N+](=O)[O-])c(NCC7(F)CCOCC7)c7c6OC(F)(F)O7)c(Oc6cnc7[nH]ccc7c6)c5)CC4)C3)[C@H](c3ccccc3C(C)C)C2)cc1 [compound 164, (R)-2-((1H-pyrrolo[2,3-b]pyrid-5-yl)oxy)-N-((2,2-difluoro-7-(((4-fluorotetrahydro-2H-pyran-4-yl)methyl)amino)-6-nitrobenzo[d][1,3]dioxocyclopent-4-yl)sulfonyl)-4-(2-(2-(2-isopropylphenyl)-4-(4-methoxybenzyl)piperazin-1-yl)-7-azaspiro[3.5]non-7-yl)benzamide]
< 10 | CC(=O)N1CCC(F)(CNc2c([N+](=O)[O-])cc(S(=O)(=O)NC(=O)c3cc(F)c(N4CCC5(CC4)CC(N4CCC[C@H]4c4ccccc4C(C)C)C5)cc3Oc3cnc4[nH]ccc4c3)c3nc[nH]c23)CC1 [compound 028, (S)-2-((1H-pyrrolo[2,3-b]pyrid-5-yl)oxy)-N-((7-(((1-acetyl-4-fluoropiperid-4-yl)methyl)amino)-6-nitro-1H-benzo[d]imidazol-4-yl)sulfonyl)-5-fluoro-4-(2-(2-(2-isopropylphenyl)pyrrolidin-1-yl)-7-azaspiro[3.5]non-7-yl)benzamide]

Continued, compound first:

Compound | IC50 [nM]
CC(C)c1ccccc1[C@@H]1CCCN1C1CC2(CCN(c3cc(Oc4cnc5[nH]ccc5c4)c(C(=O)NS(=O)(=O)c4cc([N+](=O)[O-])c(NCC5(F)CCN(C(C)C)CC5)c5[nH]cnc45)cc3F)CC2)C1 [compound 022, (S)-2-((1H-pyrrolo[2,3-b]pyrid-5-yl)oxy)-5-fluoro-N-((7-(((4-fluoro-1-isopropylpiperid-4-yl)methyl)amino)-6-nitro-1H-benzo[d]imidazol-4-yl)sulfonyl)-4-(2-(2-(2-isopropylphenyl)pyrrolidin-1-yl)-7-azaspiro[3.5]non-7-yl)benzamide] | < 10
CC(C)c1ccccc1C1CN(C2CCOCC2)CCN1C1CC2(CCN(c3cc(Oc4cnc5[nH]cc(F)c5c4)c(C(=O)NS(=O)(=O)c4ccc(NC[C@H]5CC[C@](C)(O)CC5)c([N+](=O)[O-])c4)cn3)CC2)C1 (stereo partly shown) [compound 059, 4-((3-fluoro-1H-pyrrolo[2,3-b]pyrid-5-yl)oxy)-N-((4-((((1r,4r)-4-hydroxy-4-methylcyclohexyl)methyl)amino)-3-nitrophenyl)sulfonyl)-6-(2-(2-(2-isopropylphenyl)-4-(tetrahydro-2H-pyran-4-yl)piperazin-1-yl)-7-azaspiro[3.5]non-7-yl) nicotinamide] | < 10
(S)-2-((1H-pyrrolo[2,3-b]pyrid-5-yl)oxy)-N-((7-(((4-fluoro-1-(oxocyclobut-3-yl)piperid-4-yl)methyl)amino)-6-nitro-1H-benzo[d]imidazol-4-yl)sulfonyl)-4-(2-(2-(2-isopropylphenyl)pyrrolidin-1-yl)-7-azaspiro[3.5]non-7-yl)benzamide [compound 003] | < 10
CC(C)c1ccccc1[C@@H]1CCCN1C1CC2(CCN(c3cc(N4CCOc5nc6[nH]ccc6cc54)c(C(=O)NS(=O)(=O)c4cc([N+](=O)[O-])c(NCC5(F)CCN(C(C)C)CC5)c5[nH]cnc45)cn3)CC2)C1 [compound 083, (S)-4-(2,3-dihydropyrrolo[3′,2′:5,6]pyridino[2,3-b][1,4]oxazin-1 (6H)-yl)-N-((7-(((4-fluoro-1-isopropylpiperid-4-yl)methyl)amino)-6-nitro-1H-benzo[d]imidazol-4-yl)sulfonyl)-6-(2-(2-(2-isopropylphenyl)pyrrolidin-1-yl)-7-azaspiro[3.5]non-7-yl) nicotinamide] | < 10
COc1ccc(CN2CCN(C3CC4(CCN(c5ccc(C(=O)NS(=O)(=O)c6cc([N+](=O)[O-])c(NCC7(F)CCOCC7)c7c6OCO7)c(Oc6cnc7[nH]ccc7c6)c5)CC4)C3)[C@H](c3ccccc3C(C)C)C2)cn1 [compound 166, (R)-2-((1H-pyrrolo[2,3-b]pyrid-5-yl)oxy)-N-((7-(((4-fluorotetrahydro-2H-pyran-4-yl)methyl)amino)-6-nitrobenzo[d][1,3]dioxocyclopent-4-yl)sulfonyl)-4-(2-(2-(2-isopropylphenyl)-4-((6-methoxypyrid-3-yl)methyl)piperazin-1-yl)-7-azaspiro[3.5]non-7-yl)benzamide] | < 10
CC(C)c1ccccc1[C@@H]1CCCN1C1CC2(CCN(c3cc(Oc4cnc5[nH]ccc5c4)c(C(=O)NS(=O)(=O)c4cc([N+](=O)[O-])c(NC[C@H]5CC[C@](C)(O)CC5)c5c4OCO5)cc3F)CC2)C1 [compound 096, 2-((1H-pyrrolo[2,3-b]pyrid-5-yl)oxy)-5-fluoro-N-((7-((((1r, 4r)-4-hydroxy-4-methylcyclohexyl)methyl)amino)-6-nitrobenzo[d][1,3]dioxocyclopent-4-yl)sulfonyl)-4-(2-((S)-2-(2-isopropylphenyl)pyrrolidin-1-yl)-7-azaspiro[3.5]non-7-yl)benzamide] | < 10
COc1ccc(CN2CCN(C3CC4(CCN(c5ccc(C(=O)NS(=O)(=O)c6cc([N+](=O)[O-])c(NCC7(F)CCOCC7)c7c6OCO7)c(Oc6cnc7[nH]ccc7c6)c5)CC4)C3)[C@H](c3ccccc3C(C)C)C2)cc1 [compound 147, (R)-2-((1H-pyrrolo[2,3-b]pyrid-5-yl)oxy)-N-((7-(((4-fluorotetrahydro-2H-pyran-4-yl)methyl)amino)-6-nitrobenzo[d][1,3]dioxocyclopent-4-yl)sulfonyl)-4-(2-(2-(2-isopropylphenyl)-4-(4-methoxybenzyl)piperazin-1-yl)-7-azaspiro[3.5]non-7-yl)benzamide] | < 10
CC(C)c1ccccc1[C@@H]1CCCN1C1CC2(CCN(c3cc(Oc4cnc5[nH]ccc5c4)c(C(=O)NS(=O)(=O)c4cc([N+](=O)[O-])c(NCC5(F)CCN(C(=O)CN(C)C)CC5)c5[nH]cnc45)cn3)CC2)C1 [compound 029, (S)-4-((1H-pyrrolo[2,3-b]pyrid-5-yl)oxy)-N-((7-(((1-(dimethylglycyl)-4-fluoropiperid-4-yl)methyl)amino)-6-nitro-1H-benzo[d]imidazol-4-yl)sulfonyl)-6-(2-(2-(2-isopropylphenyl)pyrrolidin-1-yl)-7-azaspiro[3.5]non-7-yl) nicotinamide] | < 10
COc1ccc(CN2CCN(C3CC4(CCN(c5ccc(C(=O)NS(=O)(=O)c6cc([N+](=O)[O-])c(NCC7(F)CCOCC7)c7c6OC(C)(C)O7)c(Oc6cnc7[nH]ccc7c6)c5)CC4)C3)[C@H](c3ccccc3C(C)C)C2)cc1 [compound 162, (R)-2-((1H-pyrrolo[2,3-b]pyrid-5-yl)oxy)-N-((7-(((4-fluorotetrahydro-2H-pyran-4-yl)methyl)amino)-2,2-dimethyl-6-nitrobenzo[d][1,3]dioxocyclopent-4-yl)sulfonyl)-4-(2-(2-(2-isopropylphenyl)-4-(4-methoxybenzyl)piperazin-1-yl)-7-azaspiro[3.5]non-7-yl)benzamide] | < 10
